The nature of data set [1]: Particle size measurement of Citalopram HBr, Paroxetine HCl and Fluoxetine HCl. The following applies: for D (v, 0.9) / D (v. 0.1) / Mean, D [4, 3] / Median, D (v, 0.5) / Span / Uniformity: Dispersed in air, Distribution Type: Volume. Format: physicochemical. As to the method:
Particle size measurements were conducted on Paroxetine HCl.

For data set [2] the following is noted: cited from earlier work.
For data set [3] the following is noted: cited from earlier work. This is another data set of the same source.
For data set [4] the following is noted: cited from earlier work. This is another data set of the same source.
For data set [5] the following is noted: cited from earlier work. This is another data set of the same source.
Setting [6] is: 30 mg tablets daily for 30 days, normal male subjects.
Where [7] appears, read: 30 mg tablets daily for 30 days.
[8] abbreviates: single dose with and without food.

Counter-ions that a name gives are not always drawn. Like-named read-outs stand apart in the source and are kept apart here.

Regarding `Br.CN(C)CCCC1(c2ccc(F)cc2)OCc2cc(C#N)ccc21` (centres unmarked) [Citalopram HBr Provided by Supplier 2], in data set [1], the “D (v, 0.9)” value is on record as 1191.10 µm; the “D (v. 0.1)” value was 1.62 µm; the “Mean, D [4, 3]” value was “Mean, D [4, 3] = 259.27 µm”; the “Median, D (v, 0.5)” value was 7.27 µm. Moreover, in data set [1], the Span result is on record as “Span = 1.637E+02” and the Uniformity result is reported as “Uniformity = 3.518E+01”.

The Cmax is the peak of the concentration-time curve. By Tmax is commonly meant the time from dosing to the highest level. For `Fc1ccc([C@@H]2CCNC[C@H]2COc2ccc3c(c2)OCO3)cc1` [Paroxetine, (−)-trans-4R-(4′-fluorophenyl)-3S[(3′,4′-methylenedioxyphenoxy)methyl]piperidine hydrochloride (hemihydrate)], in data set [1], the “D (v, 0.9)” value is “D (v, 0.9) = 16.56 µm”; the “D (v. 0.1)” value is “D (v. 0.1) = 0.85 […]mMedian,”; the “Mean, D [4, 3]” value is “Mean, D [4, 3] = 11.02 µm”; the “Median, D (v, 0.5)” value is given as “D (v, 0.5) = 4.44 µm”. In data set [1], the Span result was “Span = 3.541E+00” and the Uniformity entry is “Uniformity = 1.980E+00”. In data set [2] (setting [6]), the “Cmax at steady state, mean” value is 61.7 ng/mL; the “Cmin at steady state, mean” value was 30.7 ng/mL; the “Tmax at steady state, mean” value is 5.2 h; the “t1/2 at steady state, mean” value is 21.0 h. For the same compound, in data set [2] (setting [7]), the “steady state Cmax relative to prediction from single dose studies” value is listed as “about 6 times”, the “steady state Cmin relative to prediction from single dose studies” value was ~14 times and the “steady state drug exposure based on AUC0-24 relative to prediction from single dose data” value is on record as “about 8 times”. Also, the “time to steady state Paroxetine concentrations” value in data set [2] (30 mg tablets daily, most subjects) is reported as “approximately 10 days”. Besides, in data set [2] (setting [8]), the “increase of AUC when administered with food” value is reported as 6% and the “increase of Cmax when administered with food” value is listed as 29%. The “time to reach peak plasma concentration” value in data set [2] (single dose with food) is 4.9 h. Further, the “time to reach peak plasma concentration” value in data set [2] (single dose without food) was 6.4 h.

For `CN[C@H]1CC[C@@H](c2ccc(Cl)c(Cl)c2)c2ccccc21.Cl` [Sertraline, (1S-cis)-4(3,4-dichlorophenyl)-1,2,3,4-tetrahydro-N-methyl-1-naphthalenamine hydrochloride], the time to peak (Tmax) in data set [3] (oral concentrate, single dose with food) was 7.0 h. For the same compound, the “increase of Cmax with food” value in data set [3] (tablet, single dose with and without food) is on record as 25%.

As to `CN(C)CCC[C@@]1(c2ccc(F)cc2)OCc2cc(C#N)ccc21` [Escitalopram, S-(+)-1-[3-(dimethyl-amino)propyl]-1-(β-fluorophenyl)-5-phthalancarbonitrile oxalate], in data set [4] (dose range of 10 to 30 mg per day), the “single and multiple dose pharmacokinetics” value is “linear and dose proportional”. In data set [4] (single oral dose (20 mg tablet)), the “mean Tmax” value was 5 ± 1.5 h.

`Br.CN(C)CCCC1(c2ccc(F)cc2)OCc2cc(C#N)ccc21` (centres unmarked) [Citalopram HBr Provided by Supplier 1]: in data set [1] (Dist. Base: Volume), the “Dia.on % (10.0%)” value is 3.267 µm, the “Dia.on % (20.0%)” value stood at 4.606 µm, the “Dia.on % (35.0%)” value is given as 6.212 µm and the “Dia.on % (70.0%)” value came to 10.295 µm. In addition, in data set [1] (Dist. Base: Volume), the “Dia.on % (90.0%)” value is on record as 14.874 µm; the “Particle size, C.V.” value was found to be 54.90%; the “Particle size, Mean” value is reported as 8.569 µm; the “Particle size, Median” value turned out to be 7.781 µm. Also, in data set [1] (Dist. Base: Volume), the “Particle size, Mode” value is reported as 8,253 µm; the “SP. Area” value stood at 10290 cm^2/cm^2; the “Span: (D 20.0-D 10.0)/D50” value is “Span: (D 20.0-D 10.0)/D50 = 0.172”.

As for `CNCCC(Oc1ccc(C(F)(F)F)cc1)c1ccccc1.Cl` (centres unmarked) [Fluoxetine HCl Provided by Supplier 1], in data set [1] (Dist. Base: Volume), the “Dia.on % (10.0%)” value is given as 7.877 µm, the “Dia.on % (20.0%)” value came out at 10.941 µm, the “Dia.on % (35.0%)” value was determined as 15.114 µm and the “Dia.on % (70.0%)” value worked out at 29.4885 µm. Moreover, in data set [1] (Dist. Base: Volume), the “Dia.on % (90.0%)” value was determined as 118.199 µm; the “Particle size, C.V.” value stood at 161.24%; the “Particle size, Mean” value is 45.505 µm; the “Particle size, Median” value is given as 19.672 µm. Also, the “SP. Area” value in data set [1] (Dist. Base: Volume) is listed as 3861 cm^2/cm^2.

For `CN(C)CCCC1(c2ccc(F)cc2)OCc2cc(C#N)ccc21` (racemic) [Citalopram, (RS)-1-[3-(dimethylamino)propyl]-1-(4-fluorophenyl)-5-phthalancarbonitrile hydrobromide], in data set [5] (relative to an intravenous dose), the absolute bioavailability result is “about 80%”. Further, in data set [5] (single oral dose (40 mg tablet)), the “time at which peak blood levels occur” value is reported as “about 4 hours”.

With `CNCCC(Oc1ccc(C(F)(F)F)cc1)c1ccccc1.Cl` (centres unmarked) [Fluoxetine HCl Provided by Supplier 2], in data set [1] (Dist. Base: Volume), the “Dia.on % (10.0%)” value is given as 5.668 µm, the “Dia.on % (20.0%)” value is listed as 9.337 µm, the “Dia.on % (35.0%)” value worked out at 14.546 µm and the “Dia.on % (70.0%)” value was 42.5575 µm. Besides, in data set [1] (Dist. Base: Volume), the “Dia.on % (90.0%)” value is 296.388 µm; the “Particle size, C.V.” value was determined as 144.70%; the “Particle size, Mean” value is reported as 86.383 µm; the “Particle size, Median” value was 20.638 µm. The “SP. Area” value in data set [1] (Dist. Base: Volume) came out at 5004 cm^2/cm^2.

Source of the values: patent publication US20080138411A1, “Modified Release Formulations Of Selective Serotonin Re-Uptake Inhibitors” (priority 2002, published 2008).
